Data published in patent US7384912B2, “Treatment of bone disorders with skeletal anabolic drugs” (Osteotrophin, LLC, priority 2002, dated 2008).
No end group written: not given here.

Assays:
[1] = biological target: T1, adenylate cyclase in human renal cortical membranes (RCM) (Homo sapiens, UniProt Q03431); experiment: Adenylate cyclase assay in human kidney membranes; assay type: biochemical; conditions: both membrane preparations (RCM and SaOS-2 membranes)
T1 sequence (Q03431 27-593): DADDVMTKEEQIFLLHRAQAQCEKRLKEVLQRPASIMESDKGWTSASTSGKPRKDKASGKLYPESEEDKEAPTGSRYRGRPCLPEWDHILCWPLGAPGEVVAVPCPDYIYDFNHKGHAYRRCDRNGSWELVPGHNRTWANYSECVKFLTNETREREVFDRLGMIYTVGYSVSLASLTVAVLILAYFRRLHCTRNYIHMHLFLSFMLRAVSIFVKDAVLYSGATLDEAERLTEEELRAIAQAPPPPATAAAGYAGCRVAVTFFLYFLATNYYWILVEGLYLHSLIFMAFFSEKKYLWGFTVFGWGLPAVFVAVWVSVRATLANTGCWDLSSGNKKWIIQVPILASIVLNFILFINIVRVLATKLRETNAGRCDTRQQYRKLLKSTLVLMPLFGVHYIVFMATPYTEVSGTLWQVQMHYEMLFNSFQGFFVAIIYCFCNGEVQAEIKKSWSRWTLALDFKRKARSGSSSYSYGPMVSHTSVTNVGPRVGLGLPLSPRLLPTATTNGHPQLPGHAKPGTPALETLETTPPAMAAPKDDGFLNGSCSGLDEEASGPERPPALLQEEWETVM
Description: (§1) Therefore, dose response curves for each peptide were generated at 30° C. for 10 min in human kidney and 30° C. for 30 min in SaOS-2 membranes. As with the intact cell adenylate cyclase assays, kidney and bone cell membrane adenlyate cyclase assays were performed under binding assay conditions. Results are expresses as percentage of maximal cAMP stimulation in order to compare peptide dose responses from different experiments.
(§2) Statistical differences were assessed by paired and unpaired two-tailed Student's t test.

[2] = tested on: adenylate cyclase in SaOS-2 membranes; experiment: Adenylate cyclase assay in SaOS-2 cell membranes; assay type: biochemical, human; conditions: 30° C., 30 min
Description: as §1, §2

[3] = tested on: adenylate cyclase in SaOS-2 intact cells; experiment: Adenylate cyclase assay in SaOS-2 intact cells; assay type: cell-based, human; conditions: 15° C., 60 min
Description: Adenylate cyclase-stimulating activity was examined in confluent SAOS-2 cells as previously described for ROS 17/2.8 cells (Merendino et al., Science 231:388-390, (1986)), with the following modification. The intact cell assay was conducted at 15° C., the same conditions employed for binding to intact SaOS-2 cells (vide supra). […] Dose response curves for each peptide were thus generated using 60 min incubations at 15° C. under binding assay conditions.
as §2

[4] = tested on: ovariectomized (OVX) rats; experiment: Body weight, serum chemistries, kidney calcium and deaths in ovariectomized rats
Description: All studies were performed using virus- and antibody-negative female Sprague-Dawley rats from Harlan Sprague-Dawley (Indianapolis, Ind.). All rats underwent sham ovariectomy or ovariectomy at 5 months of age. Studies began at six months of age, one month following ovariectomy or sham operation. Rats were maintained on a diet containing 0.5% calcium and 0.4% phosphorus. The light cycle was 12 hours.
The protocol employed is described in schematic form in Table IV. Animals were randomly assigned to 17 groups of 10 as described in the Table. […] For the peptide-treated animals, the peptide was administered daily, subcutaneously at a dose of 40 μg/kg/day, in the vehicle described above. For vehicle-treated animals, vehicle alone was administered in an identical fashion.
Serum and urine chemistries as described in Table XI were performed using standard autoanalyser methods (Boehringer-Mannheim-Hitachi, Indianapolis, Ind.). Kidney calcium content was determined following extraction of whole kidneys in 5% trichloroacetic acid, followed by calcium measurement by calcium analyzer (Calcette, Midfield, Mass.).

[5] = tested on: adenylate cyclase in canine renal cortical membranes (CRCM); experiment: Canine renal cortical membrane adenylate cyclase assay, standard assay; assay type: biochemical; conditions: 30 min, 30° C.
Description: Results are expressed as the percent increment in adenylate cyclase activity in tubes containing the peptides as compared with tubes containing vehicle only.

[6] = tested on: adenylate cyclase in highly purified canine renal membranes; experiment: Canine renal adenylate cyclase assay under binding assay conditions; assay type: biochemical; conditions: 20° C., 20 min, with bacitracin
Description: Adenylate cyclase-stimulating activity of both peptides was also examined using highly purified 32% interface membranes. Incubation was carried out under binding conditions at 20° C. for 20 min in the presence of the protease inhibitor, bacitracin (200 μg/ml). All other aspects of this assay were identical to the standard assay.

[7] = biological target: T2, PTH/PTHrP receptors in canine renal membranes (Canis lupus familiaris, UniProt Q9TU31); experiment: Competition binding to canine renal cortical membranes; conditions: Scatchard analysis of equilibrium binding data
T2 construct: The renal cortex from adult mongrel dogs was homogenized; from tissue; host or cells: renal cortex of adult mongrel dogs, purified membranes
T2 sequence (Q9TU31 29-595): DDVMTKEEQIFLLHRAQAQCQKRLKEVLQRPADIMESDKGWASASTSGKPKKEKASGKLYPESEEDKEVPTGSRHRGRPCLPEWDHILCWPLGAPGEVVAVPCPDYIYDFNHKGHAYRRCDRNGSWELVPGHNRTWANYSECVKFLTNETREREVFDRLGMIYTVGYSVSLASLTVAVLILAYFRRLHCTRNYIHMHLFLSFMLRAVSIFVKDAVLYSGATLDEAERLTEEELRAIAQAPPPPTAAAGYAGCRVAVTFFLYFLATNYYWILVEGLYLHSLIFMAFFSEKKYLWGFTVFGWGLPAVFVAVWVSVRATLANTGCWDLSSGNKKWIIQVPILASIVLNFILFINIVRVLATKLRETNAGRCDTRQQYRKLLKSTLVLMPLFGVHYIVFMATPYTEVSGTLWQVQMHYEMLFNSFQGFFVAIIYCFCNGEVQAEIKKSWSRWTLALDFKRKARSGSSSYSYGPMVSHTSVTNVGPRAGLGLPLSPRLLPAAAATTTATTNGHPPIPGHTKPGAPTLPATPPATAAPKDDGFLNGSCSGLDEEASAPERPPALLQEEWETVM
Description: The renal cortex from adult mongrel dogs was homogenized in 3 volumes (ml:gm) of 0.25 M sucrose containing 5.0 mM Tris HCl (pH 7.5), 1.0 mM EDTA, 6.5 KIU/ml aprotinin and 50 μg/ml bacitracin (SET buffer) at 4° C. with ten 30 second strokes of a motor-driven teflon pestle at 2000 RPM. The homogenate was filtered through one thickness of nylon mesh and centrifuged at 1475×g for 10 mm. The supernatant was discarded and the pellet resuspended in 1 volume of 2.0 M sucrose, 5 mM Tris HCl, 1 mM EDTA (pH 7.5), 6.5 KIU/ml aprotinin, and 50 μg/ml bacitracin. This was centrifuged at 13,300×g for 10 minutes and the pellet discarded. The supernatant was diluted 8-fold with ET buffer (5 mM Tris HCl, 1 mM EDTA (Ph 7.5), 6.5 KIU/ml aprotinin, and 50 μg/ml bacitracin) and centrifuged at 20,000×g for 15 min. […]
Binding assays were conducted in siliconized 12×75 mm borosilicate glass test tubes at 20° C. in a final volume of 0.2 ml. […] Radioactivity in both the pellet and supernatant was measured.
Dissociation constants (Kd) were determined by Scatchard analysis of the data obtained from competitive binding experiments using radioligand and increasing concentrations of unlabeled ligand. […] Statistical differences were assessed by paired Student's t test. […] Significance was determined using a partial F-test.

[8] = tested on: ovariectomized osteopenic rats; conditions: ovariectomized osteopenic rats (Vickery et al.); cited from earlier work

rat (r)PTH-(1-34) [rPTH-(1-34)]
more potent than hPTHrP-(1-36) in stimulating adenylate cyclase [1]: 10 fold | EC50 [2]: 0.09 ± 0.03 nM | EC50 [3]: 0.9 ± 0.1 nM

SVSEIQLLHDKGKHLASQERVEWLRKKLQDVHTA [SDZ PTH 893, Leu^8, Asp^10, Lys^11, Ala^16, Gln^18, Thr^33, Ala^34hPTH(1-34)]
treated animals that died during the study ([4]; 30 OVX rats per peptide, 40 μg/kg/day, six month study): 13% | renal calcium content, in words ([4]; rat, in vivo): marked increases in renal calcium content

bovine (b)PTH-(1-34) [bPTH-(1-34)]
EC50 [2]: 0.5 ± 0.06 nM | EC50 [3]: 1.2 ± 0.1 nM | potency relative to PTHrP-(1-36) [5]: greater than 6 fold | adenylate cyclase stimulation greater than for PTHrP-(1-36) [6]: 15 fold

[Nle^8,18,Tyr^34]hPTH-(1-34)amide
Bmax [7]: 2.73±0.31 pmol/mg protein

[MAP1-10]22-31 hPTHrP-(1-34)NH2
anabolic activity versus parent peptide [8]: greater anabolic activity than the parent peptide
